Data on 47 compounds can be found in ChEMBL document CHEMBL4483862, “Open-source discovery of chemical leads for next-generation chemoprotective antimalarials” (2018).

The assay relates to Plasmodium berghei. Put plainly: Luciferase/luciferin-expressing antifolate-resistant parasites were used to infect a culture of HepG2 cells that were pre-incubated with compounds. Infected hepatocytes emit light due to the luciferase reaction. Assay results are presented as the percent inhibition of light emission compared to control. […]. Type of assay: functional. Conditions: sporozoite; for IC50: read-out: LUCIFERASE INFECTION ASSAY - IC50; for IC90: read-out: LUCIFERASE INFECTION ASSAY - IC90.

Consider `Cc1cccc2sc(NC(=O)c3cccc(S(=O)(=O)N4CCc5ccccc54)c3)nc12`, for which the IC50 (commonly the concentration needed to halve the response being measured) was over 10 µM and the IC90 (commonly the concentration at which the effect reaches the 90% level) was over 10 µM.

Take `CCc1cc2c(=O)n(Cc3ccco3)c(SCC(=O)N(C)C3CCS(=O)(=O)C3)nc2s1` (centres undefined): the IC50 is over 10 µM and the IC90 was over 10 µM.

Turning to `N#CCCN(C(=O)COC(=O)c1ccc2c(c1)NC(=O)CS2)c1ccc2c(c1)OCCO2`, the IC50 is over 10 µM and the IC90 was over 10 µM.

On to `COc1cc2nc(SCc3c(C)noc3C)n(CCC3=CCCCC3)c(=O)c2cc1OC`, for which the IC50 is over 10 µM and the IC90 was over 10 µM.

For `CCc1cccc(CC)c1N=C(S)NC(C)c1ccccc1` (centres undefined), the IC50 was over 10 µM and the IC90 was over 10 µM.

Turning to `COc1ccccc1/C=C(/CC(=O)NCc1ccc2c(c1)OCO2)c1nc2ccccc2s1`, the IC50 was over 10 µM and the IC90 is over 10 µM.

Turning to `COc1cc2c(cc1OC)C1(NCC2)C(=O)Nc2ccccc21` (centres undefined), the IC50 is over 10 µM and the IC90 is over 10 µM.

Regarding `Cc1cccc(NC(=O)CN(C)C(=O)/C=C/c2ccccc2)c1C`, the IC50 was over 10 µM and the IC90 was over 10 µM.

`CCOC(=O)/C=c1\s/c(=C\c2ccc(Cl)cc2)c(=O)n1CC(=O)c1ccc(Cl)cc1`: the IC50 was over 10 µM and the IC90 is over 10 µM.

Regarding `O=C(OCc1csc(-c2ccccc2)n1)c1ccccc1Sc1ccc(C(F)(F)F)cc1[N+](=O)[O-]`, the IC50 was over 10 µM and the IC90 was over 10 µM.

Consider `CCCN(C(=O)c1ccccc1CCc1ccccc1)c1nc(-c2ccc(Cl)cc2Cl)cs1`, for which the IC50 is over 10 µM and the IC90 was over 10 µM.

Take `CCCn1c(N)c(C(=O)CSc2nc3sc(C)c(C)c3c(=O)n2-c2ccccc2)c(=O)[nH]c1=O`: the IC50 is over 10 µM and the IC90 is over 10 µM.

On to `Cc1ccc(Cn2nc(C)c3cc(C(=O)OCC(=O)c4cc(C)n(CC5CCCO5)c4C)sc32)cc1` (centres undefined), for which the IC50 was over 10 µM and the IC90 was over 10 µM.

With `CC(C)N(CC(=O)Nc1ccc(Cl)cc1C(F)(F)F)C(=O)CNC(c1ccccc1)c1ccccc1`, the IC50 is over 10 µM and the IC90 is over 10 µM.

`Cn1ccnc1C(=O)c1cc(SCC(=O)N2CCN(S(=O)(=O)c3ccc4ccccc4c3)CC2)nc2ccccc12`: the IC50 is over 10 µM and the IC90 was over 10 µM.

As to `CCCn1c(=O)n(C)c(=O)c2c(SCc3cccc([N+](=O)[O-])c3)nc(CC(C)C)nc21`, the IC50 was over 10 µM and the IC90 was over 10 µM.

Consider `Cc1nnc(SCC(=O)Nc2ccc(Cl)cn2)n(N)c1=O`, for which the IC50 is over 10 µM and the IC90 was over 10 µM.

`COc1cc2c(cc1NC(=O)C(C)NCC(c1ccccc1)N(C)C)oc1ccccc12` (centres undefined): the IC50 is over 10 µM and the IC90 is over 10 µM.

As for `COc1cc(OC)cc(C(=O)N(Cc2ccccc2)c2nc(-c3ccc(Cl)cc3Cl)cs2)c1`, the IC50 is over 10 µM and the IC90 is over 10 µM.

`CSCCC(NC(=O)c1ccc([N+](=O)[O-])cc1Cl)C(=O)OCC(=O)Nc1ccc(OC(F)(F)F)cc1` (centres undefined): the IC50 is over 10 µM and the IC90 was over 10 µM.

On to `CCCCN(C(=O)CCC(=O)OCC(=O)NC(=O)NCC)c1c(N)n(CCC)c(=O)[nH]c1=O`, for which the IC50 is over 10 µM and the IC90 was over 10 µM.

`CCc1sc2nc(SCc3cc(=O)n4cc(Br)ccc4n3)n(-c3cccc(OC)c3)c(=O)c2c1C`: the IC50 is over 10 µM and the IC90 was over 10 µM.

For the compound `Cc1cc(C)c(S(=O)(=O)N2CCN(C(=O)CCCOc3ccc(Cl)c(C)c3)CC2)c(C)c1`, the IC50 is over 10 µM and the IC90 was over 10 µM.

For `COc1cc(C(=O)NCC(c2ccco2)N2CCCCC2)ccc1Oc1ccc(Cl)cc1[N+](=O)[O-]` (centres undefined), the IC50 is 5.95 µM and the IC90 was over 10 µM.

Turning to `CCCn1c(=O)n(C)c(=O)c2c(SCc3cc(=O)oc4cc(CC)ccc34)nc(C(C)(C)C)nc21`, the IC50 was over 10 µM and the IC90 is over 10 µM.

In the case of `Cc1c(C(=O)OCC(=O)N(Cc2ccccc2)Cc2ccccc2)sc2nc3n(c(=O)c12)CCC3`, the IC50 was 3.04 µM and the IC90 was determined as 3.43 µM.

Regarding `Nn1c(Cc2ccccc2F)nnc1SCC(=O)NCc1ccc2c(c1)OCO2`, the half-maximal inhibitory concentration (IC50) is over 10 µM and the IC90 is over 10 µM.

As for `Cc1cc(C(=O)CSc2nnc(Cn3cnc4ccccc43)n2-c2ccccc2Cl)c(C)n1C`, the IC50 was over 10 µM and the IC90 was over 10 µM.

Consider `CSc1ccccc1NC(=O)CN(C)c1nc(CSc2ccccc2)nc2sc3c(c12)CCC3`, for which the IC50 is over 10 µM and the IC90 is over 10 µM.

As to `CN(CCC#N)C(=S)NCCc1ccccc1`, the IC50 was over 10 µM and the IC90 was over 10 µM.

Take `O=C(CN1CCN(C/C=C/c2ccccc2)CC1)NC(c1ccccc1)c1ccccc1`: the IC50 was over 10 µM and the IC90 is over 10 µM.

For the compound `COc1ccc2c(Cn3ncc(Cl)c(Cl)c3=O)cc(=O)oc2c1`, the IC50 was found to be 4.21 µM and the IC90 turned out to be 7.19 µM.

As to `COc1ccccc1N(Cc1cc2ccc(C)cc2[nH]c1=O)S(=O)(=O)c1ccccc1`, the IC50 is over 10 µM and the IC90 was over 10 µM.

With `Cc1cc(C)c(C(=O)OCCC(NS(=O)(=O)c2ccc(Cl)cc2)c2ccccc2)c(C)c1` (centres undefined), the IC50 is over 10 µM and the IC90 is over 10 µM.

For the compound `O=c1c(-c2ccc([N+](=O)[O-])cc2)c(-c2ccc(Cl)cc2)cc2[nH]c3ccccc3n12`, the IC50 is over 10 µM and the IC90 was over 10 µM.

Turning to `CCCCCCc1nc(SCC(=O)Nc2cc(C)on2)c2c(=O)n(C)c(=O)n(CCC)c2n1`, the IC50 is over 10 µM and the IC90 was over 10 µM.

Take `CC(=O)Nc1ccc(C(=S)NCCCN2CCCC2=O)cc1`: the IC50 was over 10 µM and the IC90 is over 10 µM.

As to `CC1CCc2nc3ccccc3c(C(=O)OCCOc3ccccc3Cl)c2C1` (centres undefined), the IC50 was over 10 µM and the IC90 is over 10 µM.

As to `N#Cc1ccc(COC(=O)c2ccc(O)cc2)cc1`, the IC50 is over 10 µM and the IC90 was over 10 µM.

In the case of `O=C(CN(Cc1ccccc1Cl)S(=O)(=O)/C=C/c1ccccc1)Nc1ccc(F)cc1Cl`, the IC50 was over 10 µM and the IC90 was over 10 µM.

On to `CCN(CC1COc2ccccc2O1)C(=O)c1ccccc1CSc1nc2nc(C)cc(C)n2n1` (centres undefined), for which the IC50 is over 10 µM and the IC90 was over 10 µM.

In the case of `COC(=O)c1ccc2c(=O)n(-c3ccccc3)c(SCC3CCCCO3)nc2c1` (centres undefined), the half-inhibitory concentration (IC50) is over 10 µM and the IC90 is over 10 µM.

As for `O=C(CCN1C(=O)c2ccccc2C1=O)OCc1cc(=O)oc2cc(O)ccc12`, the IC50 was over 10 µM and the IC90 was over 10 µM.

For the compound `CCOC(=O)c1c(C)[nH]c(/C=C2/C(=O)N(c3ccccc3)N=C2C)c1Cc1cccc(Cl)c1`, the IC50 was over 10 µM and the IC90 was over 10 µM.

`CC(NC(=O)c1ccc(S(=O)(=O)C(F)F)cc1)C12CC3CC(CC(C3)C1)C2` (centres undefined): the IC50 is over 10 µM and the IC90 is over 10 µM.

In the case of `CCCCC1(c2ccccc2)NC(=O)N(CC(=O)Nc2ccc(C#N)c(Cl)c2)C1=O` (centres undefined), the IC50 was over 10 µM and the IC90 is over 10 µM.

Take `CCCn1c(CCC(=O)OCC(=O)c2ccc(NC(=O)CC(C)C)cc2)nc2cc(S(=O)(=O)N3CCCC3)ccc21`: the IC50 was over 10 µM and the IC90 is over 10 µM.
